According to patent US20100183580A1, “TREATMENT OF PIGS FOR REDUCING THE FEED CONVERSION RATIO OR INCREASING THE GROWTH RATE” (priority 2007, published 2010):
Values joined by “and” are separate entries in the source; they are usually repeats but may differ in a detail not shown here. Identical values can stand only once. Like-named read-outs stand apart in the source and are kept apart here.

Key:
broilers = settings: diet supplemented with pangamic acid; cited from earlier work
[1] = system: male grower-finisher pigs exposed to mycoplasmal infections; settings: cited from earlier work
[2] = system: weaned piglets (pigs of Rattlerow Seghers origin); assay type: in vivo; set-up: dG / End BW: unit not given here
From the text: The setup of the experiments described below is to assess the influence of DMG on the performance in model species for pigs: mortality, feed conversion ratio (FCR), daily growth (dG), body weight (BW).
To examine all the effects associated with the supplementation of dimethylglycine (DMG) in pig feed, a test was setup with pigs of Rattlerow Seghers origin as model species. In this feeding trial 60 weaned piglets of even sex distribution were kept for 42 days. Teeth of piglets were clipped and male piglets were neutered during the first week after birth. At the beginning of the test the piglets were ad random divided per sex in 20 pens with 3 piglets per pen, reckoning even weight distribution at pen level. The piglets were fed with one type of feed from the first day on till the end of the test period. The type of feed was attributed on a random basis to the different housings. The control feed was based on a commercial piglet feed enriched with 5% corn oil to increase the oxidative stress in the feed. The feed had the following composition: 91% dry matter, 5% ash, 18% crude protein, 8% crude fat, 4% crude fibre and 56% other carbohydrate. It has a (calculated) metabolizable energy value of about 13.9 MJ/kg.
In the second type of feed 500mg of DMG was added per kilogram to the same composition of feed as described for the control feed. Over the entire test period, the pigs consumed on average about 290 mg DMG per piglet per day. The housing of the piglets consisted out of slatted floor pig pens of 1.05 m×1.7 m with a total surface of 1.785 m^2. Feed and water were ad libitum available at all times.
Each piglet was weighted after overnight fasts at 4 times, namely at days 0, 14, 29 and 42. The daily growth for the total growth period (dG) as well as daily growth during the three periods (between the start and the fourteenth day (dGI), between the fourteenth and the twenty-ninth day (dGII) and between the twenty-ninth day and the forty-second day (dGIII)) was calculated for each animal. The feed intake for each pen was also measured during these periods. The feed conversion ratio was calculated for each of the pens for both the growth period excluding the first two weeks (FRCII+III) and for the total growth period (FRC). This feed conversion ratio was calculated by dividing the total feed consumption by the weight gain of the piglets during the entire experiment.

growing broilers = settings: DMG supplementation; cited from earlier work

For `CN(C)CC(=O)OC[C@@H](O)[C@@H](O)[C@H](O)[C@@H](O)C(=O)O` [pangamic acid, 6-O-(dimethylaminoacetyl)-D-gluconic acid], the body weight gain (broilers) is listed as “reduction” and the feed conversion rate (broilers) is listed as “not affected”.
For `C[N+](C)(C)CC(=O)O` [betaine], the “lung area damaged by mycoplasmal infection” value ([1]; 0.125% betaine in feed) is listed as “significant reduction” and the “growth rate and other performance characteristics, such as the feed conversion ratio” value ([1]; growing pigs exposed to mycoplasmal infections) is listed as “improvements”.
In the case of `CN(C)CC(=O)O` [DMG, N,N-dimethylglycine], the “End BW” value ([2]; Barrow, DMG 500 ppm, mean ± SD) is reported as 23.4 ± 0.86, the dG ([2]; Barrow, DMG 500 ppm, mean ± SD) is reported as 356 ± 20 and the “FCRII + III” value ([2]; Barrow, excluding the first two weeks, DMG 500 ppm, mean ± SD) is reported as 1.71 ± 0.12. For the same compound, the “FCRII + III, DMG-effect” value ([2]; Barrow, excluding the first two weeks, vs control) was −6.2%, the FCR ([2]; Barrow, total growth period, DMG 500 ppm, mean ± SD) was 1.80 ± 0.09 and the “FCR, DMG-effect” value ([2]; Barrow, total growth period, vs control) was −8.4%. The “End BW” value ([2]; Gilt, DMG 500 ppm, mean ± SD) was 19.3 ± 1.64, the dG ([2]; Gilt, DMG 500 ppm, mean ± SD) was 271 ± 39 and the “FCRII + III” value ([2]; Gilt, excluding the first two weeks, DMG 500 ppm, mean ± SD) was 1.74 ± 0.09. For the same compound, the “FCRII + III, DMG-effect” value ([2]; Gilt, excluding the first two weeks, vs control) was −8.9%, the FCR ([2]; Gilt, total growth period, DMG 500 ppm, mean ± SD) was 1.93 ± 0.16 and the “FCR, DMG-effect” value ([2]; Gilt, total growth period, vs control) was −3.6%. The “End BW, DMG-effect” value ([2]; Gilt, vs control) was −7.0%, the “dG, DMG-effect” value ([2]; Gilt, vs control) was −11.0% and the dGI ([2]; barrows and gilts, daily growth day 0-14, DMG 500 mg/kg feed, mean ± SD) was 94 ± 58 g/day. For the same compound, the dGII ([2]; barrows and gilts, daily growth day 14-29, DMG 500 mg/kg feed, mean ± SD) was 365 ± 65 g/day, the dGIII ([2]; barrows and gilts, daily growth day 29-42, DMG 500 mg/kg feed, mean ± SD) was 491 ± 118 g/day and the “dGI, DMG-effect” value ([2]; barrows and gilts, day 0-14, vs control) was −7.0%. The “dGII, DMG-effect” value ([2]; barrows and gilts, day 14-29, vs control) was “+8.1%”, the “dGIII, DMG-effect” value ([2]; barrows and gilts, day 29-42, vs control) was “+2.1%” and the End body weight ([2]; barrows and gilts, day 42, DMG 500 mg/kg feed, mean ± SD) was 21.4 ± 2.46 kg. The “FCRII + III, DMG-effect” value ([2]; barrows and gilts, excluding the first two weeks, vs control) was −7.6%, the “FCRII + III” value ([2]; barrows and gilts, growth period excluding the first two weeks, DMG 500 mg/kg feed, mean ± SD) was 1.72 ± 0.10 and the “improvement in feed conversion ratio (lower FCR)” value ([2]; barrows and gilts, growth period excluding the first two weeks, vs control, given unsigned) was 7.6%. The “FCR (feed conversion ratio)” value ([2]; barrows and gilts, total growth period, DMG 500 mg/kg feed, mean ± SD) was 1.87 and 1.87 ± 0.14, the “FCR, DMG-effect” value ([2]; barrows and gilts, total growth period, vs control) was −5.9% and the “improvement in feed conversion ratio (lower FCR)” value ([2]; barrows and gilts, total growth period, vs control, given unsigned) was 5.9%. For the same compound, the “Daily growth (dG)” value ([2]; barrows and gilts, total period day 0-42, DMG 500 mg/kg feed, mean ± SD) was 314 ± 53 g/day, the “improvement in feed conversion ratio (lower FCR)” value ([2]; barrows, total growth period, vs control, given unsigned) was 8.4% and the “improvement in feed conversion ratio (FCRII+III, lower)” value ([2]; gilts, growth period excluding the first two weeks, vs control, given unsigned) was 8.9%. The “improvement in feed efficiency (lower FCR)” value ([2]; gilts, total growth period, vs control, only numerically, given unsigned) was 3.6%, the “health of the animals during the experiment (clinical signs of disease)” value ([2]; pig, in vivo) was “remained healthy” and the body weight gain (growing broilers) was “not an important impact”. The feed conversion rate (growing broilers) was “decreased”.
